Among the data in patent publication US20050143391A1, “Heterocyclic amides with alpha-4 integrin antagonist activity” (J. Uriach Y Compañia S.A., priority 2002, published 2005) are IC50 values, retold here.

SMILES strings stand for the structures.

For this test, the target named is T1, integrin α4β1 (Homo sapiens, UniProt P05556+P13612).
T1 construct: endogenous in cells; host or cells: Jurkat cells
T1 sequence (P13612 34-1032): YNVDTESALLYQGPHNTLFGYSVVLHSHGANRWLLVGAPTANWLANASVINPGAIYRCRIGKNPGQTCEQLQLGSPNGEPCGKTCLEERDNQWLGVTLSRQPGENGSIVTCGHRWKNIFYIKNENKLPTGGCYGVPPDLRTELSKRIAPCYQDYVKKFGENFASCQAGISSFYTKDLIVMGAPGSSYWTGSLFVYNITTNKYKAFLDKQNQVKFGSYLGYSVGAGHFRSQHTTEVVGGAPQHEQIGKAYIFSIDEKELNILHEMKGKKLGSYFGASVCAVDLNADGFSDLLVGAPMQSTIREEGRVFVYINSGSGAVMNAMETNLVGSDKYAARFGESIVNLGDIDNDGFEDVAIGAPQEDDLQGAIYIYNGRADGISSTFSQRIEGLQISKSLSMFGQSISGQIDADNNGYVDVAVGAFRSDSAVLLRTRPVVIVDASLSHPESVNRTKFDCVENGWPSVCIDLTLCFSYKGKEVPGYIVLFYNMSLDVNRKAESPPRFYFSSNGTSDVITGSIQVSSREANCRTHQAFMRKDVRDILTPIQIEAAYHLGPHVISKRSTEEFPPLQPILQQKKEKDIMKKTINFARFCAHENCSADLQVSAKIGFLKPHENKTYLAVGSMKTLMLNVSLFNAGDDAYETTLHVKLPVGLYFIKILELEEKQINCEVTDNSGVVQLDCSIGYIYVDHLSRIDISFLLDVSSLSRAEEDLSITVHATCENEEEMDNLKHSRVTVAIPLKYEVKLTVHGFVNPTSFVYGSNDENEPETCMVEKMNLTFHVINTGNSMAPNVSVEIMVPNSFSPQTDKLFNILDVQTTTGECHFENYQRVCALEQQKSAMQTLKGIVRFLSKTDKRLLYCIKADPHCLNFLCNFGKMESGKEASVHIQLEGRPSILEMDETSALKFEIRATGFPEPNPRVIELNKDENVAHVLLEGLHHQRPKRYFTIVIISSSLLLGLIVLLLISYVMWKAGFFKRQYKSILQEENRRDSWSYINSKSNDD
T1 sequence (P05556 21-798): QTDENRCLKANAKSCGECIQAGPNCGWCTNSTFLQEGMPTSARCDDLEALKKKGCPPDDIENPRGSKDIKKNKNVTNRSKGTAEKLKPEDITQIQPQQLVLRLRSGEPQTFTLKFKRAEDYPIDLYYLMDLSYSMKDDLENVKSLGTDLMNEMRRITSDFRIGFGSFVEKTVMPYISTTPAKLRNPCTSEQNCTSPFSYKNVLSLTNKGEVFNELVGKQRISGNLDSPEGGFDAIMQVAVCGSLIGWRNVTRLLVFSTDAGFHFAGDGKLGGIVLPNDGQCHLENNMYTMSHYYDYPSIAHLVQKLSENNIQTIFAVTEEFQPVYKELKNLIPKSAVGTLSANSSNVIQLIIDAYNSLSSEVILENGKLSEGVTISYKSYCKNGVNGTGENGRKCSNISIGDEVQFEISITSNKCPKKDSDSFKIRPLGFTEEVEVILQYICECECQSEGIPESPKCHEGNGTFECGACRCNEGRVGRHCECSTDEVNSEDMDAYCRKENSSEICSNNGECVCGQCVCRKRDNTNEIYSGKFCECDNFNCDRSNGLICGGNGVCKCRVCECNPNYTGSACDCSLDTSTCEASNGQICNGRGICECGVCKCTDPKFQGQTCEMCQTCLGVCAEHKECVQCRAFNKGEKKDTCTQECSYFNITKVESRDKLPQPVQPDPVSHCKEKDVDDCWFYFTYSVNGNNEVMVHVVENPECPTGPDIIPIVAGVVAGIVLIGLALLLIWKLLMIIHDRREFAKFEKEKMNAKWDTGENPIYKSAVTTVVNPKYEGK
The test can be described thus: Inhibition of α4β1-dependent cell adhesion (Jurkat cells to peptide CS-1). In kind it is cell-based. The note with it: adhesion of Jurkat cells to CS-1-coated plates; products preincubated with cells at 37° C. for 30 minutes; at least 6 product concentrations. The protocol:
Inhibition of α4β1-Dependent Cell Adhesion
Inhibition of α4β1-dependent cell adhesion was assayed by evaluating the interaction between the peptide CS-1 (H-CLHGPEILDVPST-CONH2) and Jurkat cells (T lymphocyte cell line expressing activated integrin α4β1 but not integrin α4β7) after preincubation of said cells with the compounds of formula I to be tested. The peptide CS-1 was synthesized by conventional solid phase chemistry and purified by HPLC. Its identity was determined by elemental analysis and mass spectroscopy.
1.—Preparation of CS-1-Coated Plates
96-black well plates (Costar 3925) were used. 200 μL of 2% bovine serum albumin solution (BSA, Sigma α4503) was added per well and the plate was incubated for 2 hours at 37° C. The solution was discarded and the plate was washed twice with 200 μL of phosphate buffered saline solution (PBS, Gibco 14190-094) per well. Then, 200 μL of 10 μg/mL N-succinimidyl 3-(2-pyridyldithio)propionate solution (SPDP, Sigma P-3415) was added per well, and the plate was incubated at 37° C. for 30 minutes. The remaining solution was discarded and the plate was twice washed with 200 μL per well of PBS. Next, 200 μL of 25 μg/mL CS-1 peptide solution (equivalent to 5 μg/well) was added per well and the plate was incubated at 37° C. for 2 hours and then overnight at 4° C.
2.—Jurkat Cell Line: Culture and Fluorescent Labelling
Jurkat cells were kept in culture at a density comprised between 2×10^5 and 1.5×10^6 cells/mL in 1640 RPMI medium (Gibco 21875-034) enriched with 10% fetal calf serum (FCS, Gibco 10270-106).
50×10^6 cells were extracted, centrifuged (1200 rpm, 10 min, room temperature) and the medium was discarded. Cells were resuspended in 5 mL of RPMI, and 10 μL of a 1 mM solution of the fluorophore calceine.AM (Molecular Probes, C-3100) was added. The suspension was incubated for 30 min at 37° C. in the darkness, with occasional shaking. 40 mL of RPMI was added to stop the labelling and the suspension was centrifuged (1200 rpm, 10 min, room temperature). The medium was discarded, and the labelled cells were washed with 40 mL of RPMI in order to remove the unincorporated fluorescent probe. Finally, cells were resuspended in RPMI enriched with 10% FCS to obtain a 8×10^6 cells/mL suspension.
The plate previously prepared was twice washed with 200 μL per well of PBS and blocked with 200 μL of 1% BSA for at least 1 hour at room temperature.
The products to be tested were dissolved in dimethylsulfoxide at a concentration of 10 mM and dilutions thereof were prepared in RPMI medium enriched with 10% FCS. The products were preincubated with the Jurkat cells at 37° C. for 30 minutes, at a product concentration comprised between 1 nM and 10 μM, at a cell density of 4×10^6 cells/mL and at a maximal dimethylsulfoxide concentration of 0.1%.
100 μL of the resulting cell-product supsension was added per well (cellular density 4×10^5 cells/well). The product was omitted in the control wells and cells or CS-1 were omitted in the blanks. The plate was incubated for 60 min at room temperature in the-darkness, was twice washed with 200 μL per well of RPMI and then 100 μL of PBS was added. The plate was read with a fluorescence reader at an excitation wavelength of 485 nm and at an emission wavelength of 530 nm.
Maximal adhesion (100%) was determined as the average of the fluorescence intensities (FI) of the control wells, and the minimal adhesion as the average FI of the blanks. The adhesion inhibition percentage was determined using the following formula: [formula]
The results are expressed as the IC50 values (concentration producing 50% inhibition). IC50 values were calculated by testing at least 6 product concentrations and by adjusting the inhibition percentages to a dose-response curve of variable slope.
Take `CN1CCN(CC2CCN(C(=O)CC[C@H](NC(=O)[C@@H]3CCCN3S(=O)(=O)c3cc(Cl)cc(Cl)c3)C(=O)O)CC2)CC1` [Example 79, (2S)-2-[1-(3,5-Dichlorophenylsulfonyl)-L-prolylamino]-5-[4-(4-methylpiperazin-1-ylmethyl)piperidin-1-yl]-5-oxopentanoic Acid]: the IC50 came out at 7.6 nM.
The value for `CCOCCn1c(CN2CCN(C(=O)CC[C@H](NC(=O)[C@@H]3CCCN3S(=O)(=O)c3ccc(C)cc3)C(=O)O)CC2)nc2ccccc21` [Example 74, (2S)-5-[4-[[1-(2-Ethoxyethyl)benzimidazol-2-yl]methyl]piperazin-1-yl]-5-oxo-2-[[1-tosyl-L-prolyl]amino]pentanoic Acid] was 48 nM.
On to `CC(C)CC(=O)NCC1CCN(C(=O)CC[C@H](NC(=O)[C@@H]2CCCN2S(=O)(=O)c2cc(Cl)cc(Cl)c2)C(=O)O)CC1` [Example 55, (2S)-2-[1-(3,5-Dichlorophenylsulfonyl)-L-prolylamino]-5-[4-[(3-methylbutanoylamino)methyl]piperidin-1-yl]-5-oxopentanoic Acid], for which the IC50 is 58 nM.
The value for `CC(C)S(=O)(=O)NCC1CCN(C(=O)CC[C@H](NC(=O)[C@@H]2CCCN2S(=O)(=O)c2cc(Cl)cc(Cl)c2)C(=O)O)CC1` [Example 60, (2S)-2-[1-(3,5-Dichlorophenylsulfonyl)-L-prolylamino]-5-[4-[(isopropylsulfonylamino)methyl]piperidin-1-yl]-5-oxopentanoic Acid] was 11.6 nM.
In the case of `O=C(O)[C@H](CCC(=O)N1CCC(CN2CCOC2=O)CC1)NC(=O)[C@@H]1CCCN1S(=O)(=O)c1cc(Cl)cc(Cl)c1` [Example 70, (2S)-2-[1-(3,5-Dichlorophenylsulfonyl)-L-prolylamino]-5-oxo-5-[4-(2-oxooxazolidin-3-ylmethyl)piperidin-1-yl]pentanoic Acid], the IC50 amounted to 17 nM.
Regarding `O=C(O)[C@H](CCC(=O)N1CCC(CN2CCCCC2)CC1)NC(=O)[C@@H]1CCCN1S(=O)(=O)c1cc(Cl)cc(Cl)c1` [Example 94, (2S)-2-[1-(3,5-Dichlorophenylsulfonyl)-L-prolylamino]-5-oxo-5-[4-(1-piperidylmethyl)piperidin-1-yl]pentanoic Acid], the midpoint of inhibition, the IC50, lay at 14.1 nM.
The value for `O=C(O)[C@H](CCC(=O)N1CCC(COc2ccncc2)CC1)NC(=O)[C@@H]1CCCN1S(=O)(=O)c1cc(Cl)cc(Cl)c1` [Example 102, (2S)-2-[1-(3,5-Dichlorophenylsulfonyl)-L-prolylamino]-5-oxo-5-[4-(4-pyridyloxymethyl)piperidin-1-yl]pentanoic Acid] was 305 nM; that for `CN(C)CC1CCN(C(=O)NC[C@H](NC(=O)[C@@H]2CCCN2S(=O)(=O)c2cc(Cl)cc(Cl)c2)C(=O)O)CC1` [Example 95, (2S)-2-[1-(3,5-Dichlorophenylsulfonyl)-L-prolyl]amino-3-[[4 (dimethylaminomethyl)piperidin-1-ylcarbonyl]amino]propionic Acid] was 4.9 nM.
Take `CCc1nc2cnccc2n1CC1CCN(C(=O)CC[C@H](NC(=O)[C@@H]2CCCN2S(=O)(=O)c2cc(Cl)cc(Cl)c2)C(=O)O)CC1` [Example 85, (2S)-2-[1-(3,5-Dichlorophenylsulfonyl)-L-prolylamino]-5-[4-(2-ethylimidazo[4,5-c]pyridin-1-ylmethyl)piperidin-1-yl]-5-oxopentanoic Acid]: 12 nM corresponded to half-maximal inhibition (IC50).
Then `CC(C)Nc1nc2cnccc2n1CC1CCN(C(=O)CC[C@H](NC(=O)[C@@H]2CCCN2S(=O)(=O)c2cc(Cl)cc(Cl)c2)C(=O)O)CC1` [Example 87, (2S)-2-[1-(3,5-Dichlorophenylsulfonyl)-L-prolylamino]-5-[(2-isopropylaminoimidazo[4,5-c]pyridin-1-ylmethyl)piperidin-1-yl]-5-oxopentanoic Acid], with 14.1 nM; and `Cc1ccc(S(=O)(=O)N2CCC[C@H]2C(=O)N[C@@H](CCC(=O)N2CCC(CN3CCCC3=O)CC2)C(=O)O)cc1` [Example 62, (2S)-5-Oxo-5-[4-[(2-oxopyrrolidin-1-yl)methyl]piperidin-1-yl]-2-[1-tosyl-L-prolylamino]pentanoic Acid], with 188 nM.
The value for `CC(C)NC(=S)NCC1CCN(C(=O)CC[C@H](NC(=O)[C@@H]2CCCN2S(=O)(=O)c2cc(Cl)cc(Cl)c2)C(=O)O)CC1` [Example 58, (2S)-2-[1-(3,5-Dichlorophenylsulfonyl)-L-prolylamino]-5-[4-[(N′-isopropylthioureido)methyl]piperidin-1-yl]-5-oxopentanoic Acid] was 166 nM; that for `CCc1nc2cnccc2n1CC1CCN(C(=O)NC[C@H](NC(=O)[C@@H]2CCCN2S(=O)(=O)c2cc(Cl)cc(Cl)c2)C(=O)O)CC1` [Example 123, Lithium (2S)-2-[1-(3,5-dichlorophenylsulfonyl)-L-prolyl]amino-3-[[4-(2-ethylimidazo[4,5-c]pyridin-1-ylmethyl)piperidin-1-ylcarbonyl]amino]propionate] was 4.6 nM.
Then `CCc1nc2c(C)cc(C)nc2n1CCC1CCN(C(=O)CC[C@H](NC(=O)[C@@H]2CCCN2S(=O)(=O)c2cc(Cl)cc(Cl)c2)C(=O)O)CC1` [Example 59, (2S)-2-[1-(3,5-Dichlorophenylsulfonyl)-L-prolylamino]-5-[4-[2-(2-ethyl-5,7-dimethylimidazo[4,5-b]pyridin-3-yl)ethyl]piperidin-1-yl]-5-oxopentanoic Acid], with 13.3 nM; and `O=C(O)[C@H](CCC(=O)N1CCC(CN2CCCC2=O)CC1)NC(=O)[C@@H]1CCCN1S(=O)(=O)c1cc(Cl)cc(Cl)c1` [Example 71, (2S)-2-[1-(3,5-Dichlorophenylsulfonyl)-L-prolylamino]-5-[4-(2-oxopyrrolidin-1-ylmethyl)piperidin-1-yl]-5-oxopentanoic Acid], with 37 nM; and `Cc1ccc(S(=O)(=O)N2CCC[C@H]2C(=O)N[C@@H](CCC(=O)N2CCC(Cn3ccnc3-c3ccccc3)CC2)C(=O)O)cc1` [Example 63, (2S)-5-Oxo-5-[4-(2-phenylimidazol-1-ylmethyl)piperidin-1-yl]-2-[1-tosyl-L-prolylamino]pentanoic Acid], with 198 nM.
In the case of `O=C(O)[C@H](CCC(=O)N1CCC(CNc2ccncc2)CC1)NC(=O)[C@@H]1CCCN1S(=O)(=O)c1cc(Cl)cc(Cl)c1` [Example 99, (2S)-2-[1-(3,5-Dichlorophenylsulfonyl)-L-prolylamino]-5-oxo-5-[4-(4-pyridylaminomethyl)piperidin-1-yl]pentanoic Acid], the IC50 is 13.1 nM.
`CCCc1nc2cnccc2n1CC1CCN(C(=O)CC[C@H](NC(=O)[C@@H]2CCCN2S(=O)(=O)c2cc(Cl)cc(Cl)c2)C(=O)O)CC1` [Example 119, (2S)-2-[1-(3,5-Dichlorophenylsulfonyl)-L-prolylamino]-5-oxo-5-[4-(2-propylimidazo[4,5-c]pyridin-1-ylmethyl)piperidin-1-yl]pentanoic Acid] displayed an IC50 of 49.8 nM.
Then `Cc1nc2cnccc2n1CC1CCN(C(=O)CC[C@H](NC(=O)[C@@H]2CCCN2S(=O)(=O)c2cc(Cl)cc(Cl)c2)C(=O)O)CC1` [Example 72, (2S)-2-[1-(3,5-Dichlorophenylsulfonyl)-L-prolylamino]-5-[4-(2-methylimidazo[4,5-c]pyridin-1-ylmethyl)piperidin-1-yl]-5-oxopentanoic Acid], with 15 nM; and `Cc1ccc(S(=O)(=O)N2CCC[C@H]2C(=O)N[C@@H](CCC(=O)N2CCN(Cc3cccs3)CC2)C(=O)O)cc1` [Example 77, (2S)-5-Oxo-5-[4-(2-thienylmethyl)piperazin-1-yl]-2-[[1-tosyl-L-prolyl]amino]pentanoic Acid], with 247 nM.
